{"source": "patent US7521596B2", "about": "“Method for controlling weeds” (Sumitomo Chemical Company, Limited, priority 2004, dated 2009)", "key": {"[1]": {"test_system": "wild-type soybean line (cv. Jack)", "assay": "Spray test of the present herbicidal compound, wild-type soybean (negative control)", "assay_type": "in vivo", "conditions": "sprayed 21st day after seeding, scored 2 weeks after spraying, score 0 (died) to 3", "description": "(§1) Seeds of these lines were seeded and grown in growing pots containing horicultural soil (Kureha Engei Baido manufactured by Kureha Chemical Industry Co. Ltd.) When trifoliate leaves were developed after germination, the seedlings were transplanted to growing pots containing the soil prepared by mixing equal amount of the Kureha Engei Baido and field soil, and then grown in a greenhouse according to the method of Example 17 of WO0304370 to obtain seeds of T2 generation of each line. Among the obtained T2 generations, seeds of T2 generation of the line J18 (seeds of the recombinant soybean) were seeded in growing pots containing horicultural sail (Kureha Engei Baido manufactured by Kureha Chemical Industry Co., Ltd.) and grown. According to the above method described in Example 5, it was sprayed carfentrazone-ethyl to the seedling on the 21st day after seeding, and compared the sensitivity to carfentrazone-ethyl of the recombinant soybean with the sensitivity to carfentrazone-ethyl of wild-type soybean line (cv. Jack) at 2 weeks after spraying. The spray liquid of the above herbicidal compound was prepared as follows.\n(§2) The spray liquid was prepared by diluting dry flowable preparation of carfentrazone-ethyl (AIM™ HERBICIDE manufactured by FMC, containing 40% (w/w) of carfentrazone-ethyl) with Agri dex (manufactured by Valent) 1% aqueous solution to be contained 1.79 mg, 3.57 mg or 7.14 mg of carfentrazone-ethyl in the spray liquid.\n(§3) The sensitivity of the recombinant soybean to carfentrazone-ethyl was decided by scoring it based on the index below, and calculating the average of the scores with respect to each recombinant soybean line and applied amount for it. The same spray test of the wild-type soybean line (cv. Jack) was carried out as a negative control.\n(§4) <Scoring Index Based on the Degree of Phytotoxicity as Dying of the Individual and Browning or Whitening of the Leaves or Stems Caused by Compound Spraying>"}, "[2]": {"test_system": "wild-type tobacco line SR-1", "assay": "Spray test of the present herbicidal compound, wild-type tobacco (negative control)", "assay_type": "in vivo, Nicotinia tabacum", "conditions": "wild type SR-1, score 0 (died) to 3; for average phytotoxicity score (sensitivity to carfentrazone-ethyl): applied as AIM HERBICIDE dry flowable; for average phytotoxicity score (sensitivity to flufenpyr-ethyl): about 2 weeks after spraying, average of 4 individuals", "description": "(§5) Seeds of the homozygote lines selected in Example 4 (seeds of lines #17 and #25 of the recombinant tobacco to which plasmid pBI-NdG6-rSt-1609soy has been introduced, and seeds of the line 1584soy#16 of the recombinant tobacco to which plasmid pBI-NdG6-rSt-1584soy has been introduced) were aseptically seeded on MS agar medium containing 100 mg/L kanamycin. Also, seeds of the wild-type tobacco line SR-1 were aseptically seeded on MS agar medium. After about 2 weeks, germinated seedlings were observed.\n(§6) Germinated individuals were transplanted to growing pots containing horicultural soil (Kureha Engei Baido manufactured by Kureha Chemical Industry Co., Ltd.), acclimated to the external environment in a growth chamber, then grown for about 2 weeks at 23° C., 23 hours of day length in a growth chamber. Thus obtained plants were applied to the spray test of the present herbicidal compound, flufenpyr-ethyl.\n(§7) Flufenpyr-ethyl was dissolved in Solvesso cocktail mixed Solvesso 200 (manufactured by Valent) and Sorpol 3816 (manufactured Sumitomo Chemical Co., Ltd.) at the ratio of 87.5:10 such that flufenpyr-ethyl was respectively contained 0.89 mg or 1.78 mg in 0.5 mL Solvesso cocktail. The spray liquid of flufenpyr-ethyl was prepared as the aqueous solution containing the Solvesso cocktail of 2.5% concentration in which the compound was dissolved and Agri dex of 1% concentration (manufactured by Valent) as adjuvant.\n(§8) Spray of the spray liquid to the plant above described was carried out, by using running automatic spray machine (manufactured by Nambasekkei), such that spray liquid 20 mL was sprayed to the recombinant tobacco seedlings put at 0.9 square meter of the sprayed area in a uniform way. After about 2 weeks, the sensitivity of the applied recombinant tobacco line to flufenpyr-ethyl was compared to the sensitivity of the wild-type tobacco line SR-1 to flufenpyr-ethyl. In the above spray test, 4 individuals of the recombinant tobacco were used with respect to each applied amount of flufenpyr-ethyl. The sensitivity of the recombinant tobacco to flufenpyr-ethyl was decided by scoring it based on the index below, and calculating the average of the score of 4 individuals with respect to each recombinant tobacco line and applied amount for it. The same spray test of wild-type line SR-1 was carried out as a negative control.\nas §4\n(§9) As to the homozygote line 1609soy#25 selected in Example 4 from among the recombinant tobacco lines to which a DNA having a nucleotide sequence encoding the amino acid sequence of SEQ ID NO: 1 has been introduced, and the wild-type tobacco line SR-1, their sensitivities to the compound (I), carfentrazone-ethyl and sulfentrazone were investigated according to the method described in Example 5 (evaluation by scoring index based on the degree of phytotoxicity as dying of the individual and browning or whitening of the leaves or stems caused by compound spraying). […]"}, "[3]": {"test_system": "recombinant soybean line J18 (cytochrome P450 of SEQ ID NO: 1 introduced)", "assay": "Spray test of the present herbicidal compound, recombinant soybean line J18", "assay_type": "in vivo", "conditions": "for average phytotoxicity score (sensitivity to carfentrazone-ethyl): J18 (T2 generation), sprayed 21st day after seeding, scored 2 weeks after spraying, score 0 (died) to 3", "description": "as §1, §2, §3, §4"}, "[4]": {"test_system": "recombinant tobacco line 1609soy#25 (cytochrome P450 of SEQ ID NO: 1 introduced)", "assay": "Spray test of the present herbicidal compound, recombinant tobacco line 1609soy#25", "assay_type": "in vivo, Nicotinia tabacum", "conditions": "score 0 (died) to 3; for average phytotoxicity score (sensitivity to carfentrazone-ethyl): applied as AIM HERBICIDE dry flowable; for average phytotoxicity score (sensitivity to flufenpyr-ethyl): about 2 weeks after spraying, average of 4 individuals", "description": "as §5, §6, §7, §8, §4, §9"}, "[5]": {"test_system": "recombinant tobacco line 1584soy#16 (cytochrome P450 of SEQ ID NO: 2 introduced)", "assay": "Spray test of the present herbicidal compound, recombinant tobacco line 1584soy#16", "assay_type": "in vivo, Nicotinia tabacum", "conditions": "about 2 weeks after spraying, average of 4 individuals, score 0 (died) to 3", "description": "as §5, §6\n(§10) Flufenpyr-ethyl was dissolved in Solvesso cocktail mixed Solvesso 200 (manufactured by Valent) and Sorpol 3816 (manufactured Sumitomo Chemical Co., Ltd.) at the ratio of 87.5:10 such that flufenpyr-ethyl was respectively contained 0.89 mg or 1.78 mg in 0.5 mL Solvesso cocktail. […]"}, "[6]": {"test_system": "recombinant tobacco line 1609soy#17 (cytochrome P450 of SEQ ID NO: 1 introduced)", "assay": "Spray test of the present herbicidal compound, recombinant tobacco line 1609soy#17", "assay_type": "in vivo, Nicotinia tabacum", "conditions": "about 2 weeks after spraying, average of 4 individuals, score 0 (died) to 3", "description": "as §5, §6, §10"}}, "data": [{"smiles": "CCOC(=O)C(Cl)Cc1cc(-n2nc(C)n(C(F)F)c2=O)c(F)cc1Cl", "note": "(stereo not drawn) [carfentrazone-ethyl]", "values": [{"measurement": "average phytotoxicity score (sensitivity to carfentrazone-ethyl)", "setting": "[1]; 1.79 mg/20 mL spray liquid", "value": 1.0}, {"measurement": "average phytotoxicity score (sensitivity to carfentrazone-ethyl)", "setting": "[1]; 3.57 mg/20 mL spray liquid", "value": 0.9}, {"measurement": "average phytotoxicity score (sensitivity to carfentrazone-ethyl)", "setting": "[1]; 7.14 mg/20 mL spray liquid", "value": 0.3}, {"measurement": "average phytotoxicity score (sensitivity to carfentrazone-ethyl)", "setting": "[2]; 0.446 mg/20 mL spray liquid", "value": 1.0}, {"measurement": "average phytotoxicity score (sensitivity to carfentrazone-ethyl)", "setting": "[2]; 0.893 mg/20 mL spray liquid", "value": 0.0}, {"measurement": "average phytotoxicity score (sensitivity to carfentrazone-ethyl)", "setting": "[2]; 4.46 mg/20 mL spray liquid", "value": 0.0}, {"measurement": "average phytotoxicity score (sensitivity to carfentrazone-ethyl)", "setting": "[3]; 1.79 mg/20 mL spray liquid", "value": 1.8}, {"measurement": "average phytotoxicity score (sensitivity to carfentrazone-ethyl)", "setting": "[3]; 3.57 mg/20 mL spray liquid", "value": 1.4}, {"measurement": "average phytotoxicity score (sensitivity to carfentrazone-ethyl)", "setting": "[3]; 7.14 mg/20 mL spray liquid", "value": 0.9}, {"measurement": "phytotoxicity / resistance as compared to the wild-type plant cv. Jack", "setting": "[3]; line J18, 1.79, 3.57 or 7.14 mg in the spray liquid", "value": "the phytotoxicity was reduced and remarkable improvement of the resistance was recognized"}, {"measurement": "average phytotoxicity score (sensitivity to carfentrazone-ethyl)", "setting": "[4]; 0.446 mg/20 mL spray liquid", "value": 2.5}, {"measurement": "average phytotoxicity score (sensitivity to carfentrazone-ethyl)", "setting": "[4]; 0.893 mg/20 mL spray liquid", "value": 1.8}, {"measurement": "average phytotoxicity score (sensitivity to carfentrazone-ethyl)", "setting": "[4]; 4.46 mg/20 mL spray liquid", "value": 1.5}]}, {"smiles": "CCOC(=O)COc1cc(-n2ncc(C(F)(F)F)c(C)c2=O)c(F)cc1Cl", "note": "[flufenpyr-ethyl]", "values": [{"measurement": "average phytotoxicity score (sensitivity to flufenpyr-ethyl)", "setting": "[5]; 0.89 mg/20 mL spray liquid", "value": 3.0}, {"measurement": "average phytotoxicity score (sensitivity to flufenpyr-ethyl)", "setting": "[5]; 1.78 mg/20 mL spray liquid", "value": 3.0}, {"measurement": "average phytotoxicity score (sensitivity to flufenpyr-ethyl)", "setting": "[2]; 0.89 mg/20 mL spray liquid", "value": 1.7}, {"measurement": "average phytotoxicity score (sensitivity to flufenpyr-ethyl)", "setting": "[2]; 1.78 mg/20 mL spray liquid", "value": 0.0}, {"measurement": "average phytotoxicity score (sensitivity to flufenpyr-ethyl)", "setting": "[4]; 0.89 mg/20 mL spray liquid", "value": 3.0}, {"measurement": "average phytotoxicity score (sensitivity to flufenpyr-ethyl)", "setting": "[4]; 1.78 mg/20 mL spray liquid", "value": 3.0}, {"measurement": "average phytotoxicity score (sensitivity to flufenpyr-ethyl)", "setting": "[6]; 0.89 mg/20 mL spray liquid", "value": 3.0}, {"measurement": "average phytotoxicity score (sensitivity to flufenpyr-ethyl)", "setting": "[6]; 1.78 mg/20 mL spray liquid", "value": 3.0}]}]}
